According to patent publication US12220463B2, “Quaternary ammonium cyclodextrin and preparation method and uses thereof, and silver nanoparticle-cyclodextrin complex and preparation method and uses thereof” (Hubei University of Chinese Medicine, priority 2022, dated 2025):

Columns and labels:
[1] = Inclusion rate of C-β-CD for thymol (UV absorbance at 278 nm); type: physicochemical; conditions: thymol/C-β-CD inclusion complex, 40° C. 2 h, freeze-dried
Protocol: 0.656 g of the cationic β-cyclodextrin (C-β-CD) prepared in Example 1 was weighed and added with 10 mL distilled water until completely dissolution. An anhydrous ethanol solution containing 0.075 g thymol (2 mL in total) was added. The mixture was magnetically stirred in a water bath at 40° C. for 2 h. After completion, the mixture was filtered with a 0.45 μm microporous membrane. The resulting solution was freeze-dried for 24 h to afford a thymol/C-β-CD inclusion complex.
15 mg of analytically pure thymol was weighed and dissolved in anhydrous ethanol, and the volume was adjusted to 10 mL to prepare a 1500 mg/L stock solution. A proper amount of the stock solution was taken and diluted with anhydrous ethanol into a series of standard solutions at a concentration of 50, 40, 30, 20, and 10 mg/L. In the optimal absorption wavelength, an absorbance A of the above series of standard solutions was determined. A standard curve was drawn with a thymol concentration (mg/L) as an abscissa and A as an ordinate.
0.1 g of the thymol/C-β-CD inclusion complex as prepared above was weighed and added into a 25 mL volumetric flask, added with anhydrous ethanol to dilute to the mark, and sonicated for 30 min. […] The absorbance A of the solution at 278 nm was determined, and taken into the regression equation to calculate the thymol content in the inclusion complex. […]

[2] = test system: Escherichia coli (E. coli); test: Inhibition zone assay of bacteriostatic activity (GB/T 39101-2020, punching method); type: cell-based; conditions: FIG. 19, repeated three times
Protocol: Preparation of a silver nanoparticle sample for control: 0.1 mol/L AgCl was dissolved in 16 mL of an ammonia solution at a mass concentration of 25% with continuous stirring, and an aqueous solution of 0.1 mol/L vitamin C was added dropwise. […] The solution was then filtered, and the precipitate was washed repeatedly with double-distilled water, dispersed in double-distilled water, and freeze-dried for 24 h to afford silver nanoparticles prepared from vitamin C.
Determination of antibacterial activity of polypeptides according to GB/T 39101-2020: Inhibition zone assays in the inhibition zone method evaluate the bacteriostatic activity of test substances. The strain used is Escherichia coli (E. coli) in an ampicillin solution having a concentration of 1.5 mg/mL, using the punching method instead of the “Oxford cup” method to control the sampling areas.

[3] = Inclusion rate of C-β-CD for cinnamaldehyde (UV absorbance at 287 nm); type: physicochemical; conditions: saturated aqueous solution method, 45° C. 4 h, freeze-dried
Protocol: 0.656 g the cationic β-cyclodextrin (C-β-CD) prepared in Example 1 was weighed and added with 10 mL distilled water until completely dissolution. An anhydrous ethanol solution containing 0.066 g cinnamaldehyde was added slowly. The mixture was magnetically stirred in a water bath at 45° C. for 4 h. After completion, the mixture was filtered with a 0.45 μm microporous membrane. The resulting solution was freeze-dried for 24 h to afford a cinnamaldehyde/C-β-CD inclusion complex.
10 mg analytically pure cinnamaldehyde was weighed and dissolved in anhydrous ethanol, and the volume was adjusted to 10 mL to prepare a 1000 mg/L stock solution. A proper amount of the stock solution was taken and diluted with anhydrous ethanol into a series of standard solutions at a concentration of 2, 4, 6, 8, and 10 mg/L. In the optimal absorption wavelength, the absorbance A of the above series of standard solutions was determined. […]
0.01 g of the C-β-CD inclusion complex of cinnamaldehyde was weighed and added into a 25 mL volumetric flask, added with anhydrous ethanol to dilute to the mark, and sonicated for 30 min. […] The absorbance A of the solution was determined at 287 nm and taken into the regression equation to calculate the cinnamaldehyde content in the inclusion complex (see the previous example for the conversion formula).

Row | Compound | inclusion rate for thymol [1] [%] | bacteriostatic effect [2] | inclusion rate for cinnamaldehyde [3] [%]
1 | cationic β-cyclodextrin [C-β-CD] | 63.55 | no bacteriostatic activity | 21.55
2 | O=[N+]([O-])[O-].[Ag+] [AgNO3, silver nitrate, reference compound] | – | weak bacteriostatic effect | –
